Experiments:
[1] = system: embryos from zebrafish model of DMD; settings: Li and Amer, PLoSONE, 2015; cited from earlier work
[2] = molecular target: T1, skeletal myofibrils (Rabbit Psoas), myosin ATPase activity; assay: Skeletal Myofibril ATPase Assay; type: biochemical; settings: skeletal myofibrils (Rabbit Psoas 0.25 mg/mL), PK/LDH-coupled NADH absorbance at 340 nm
T1 construct: Rabbit Psoas Prep 11 (0.25 mg/mL)
Procedure, shortened: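 PK-LDH coupled assay: ADP from myofibril ATPase drives NADH oxidation, read as A340 every 1.5-2 min over 45 min; rate taken as max−min absorbance. Normalized to 1% DMSO vehicle (100%) and fitted to a four-parameter logistic for IC50, bottom constrained ≥0. Buffer pH 7.0 (PIPES/CaCl2/EGTA).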

IC50 [2] [µM] | Structure (SMILES) | protection of muscles from pathological muscle derangement [1]
 | Cc1ccc(S(=O)(=O)NCc2ccccc2)cc1 [BTS, N-benzyl-p-tolyl-sulfonamide] | protect muscles from pathological muscle derangement
> 100 | O=c1ccc(-c2ccc3scnc3c2)nn1Cc1ccc(Cl)cc1 [Compound 117, 6-(benzo[d]thiazol-5-yl)-2-(4-chlorobenzyl)pyridazin-3(2H)-one] | 
< 10 | O=c1ccc(-c2cnc(N3CC(OC(F)F)C3)nc2)nn1Cc1ccc(Cl)cc1 [Compound 9, 2-(4-chlorobenzyl)-6-(2-(3-(difluoromethoxy)azetidin-1-yl)pyrimidin-5-yl)pyridazin-3(2H)-one] | 
